16 compounds from patent publication EP0170926B1, “Eburnanecarboxylic acid derivatives having an amino group in position 9 or 11, the amino group eventually being substituted, process for their preparation, and medicaments containing these compounds” (priority 1984, dated 1986) can be followed below.

Converted amounts (≈) assume the structure as drawn. Counter-ions that a name gives are not always drawn. Like-named read-outs stand apart in the source and are kept apart here. Where only a bound is given, the exact number is not on record here.

In series [1] the test system is Tiere. Nature of the series: Antihypoxic effect: asphyxic anoxia. In kind it is in vivo. The note with it: po, 1 h; p.o., one hour before test; protected = survival 30 % longer than control; read-out: ED50 Asphyxische Anoxie. How it is done: Die antihypoxische Wirkung wurde ferner hoch an asphyxischer Anoxie (Caillard C. et al.: Life Sci. 16, 1607 /1975/) und an hypobarer Hypoxie (Baumel J. et al: Proc. Soc. Biol. N.Y. 132, 629 /1969/) gemessen. Dabei wurden die Tiere 16 Stunden lang ausgehungert, dann p.o. behandelt und eine Stunde später in gut schließende Glasgefäße von 100 ml Volumen gesetzt. Als Überiebenszeit wurde die Zeit vom Verschließen des Gefäßes bis zur letzten Atembewegung registriert. Als erfolgreich behandelt können diejenigen Tiere gelten, die eine um 30 % längere Zeit an Leben blieben als der Durchschnitt der Kontrollgruppe.

For series [2], the system named is Tiere. As to the kind of experiment: Antihypoxic effect: hypobaric hypoxia. In kind it is in vivo. As to conditions: po, 1 h; p.o., one hour before test; 221 mbar; protected = survival 100 % longer than control; probit analysis; read-out: ED50 Hypobare Hypoxie. From the text: Die Wirkung auf die hypobare Hypoxie wurde an 16 Stunden lang ausgehungerten Tieren untersucht, die eine Stunde vor Versuchsbeginn p.o. mit den Verbindungen behandelt wurden. Die Tiere wurden In einen Vakuumexsikkator gesetzt, und der Druck wurde innerhalb von 20 Sekunden auf 221 mbar [170 Torr] gesenkt. Von diesem Zeitpunkt an wurde als Überlebensdauer die Zeit bis zur letzten Atembewegung gemessen. Als erfolgreich behandelt wurden diejenigen Tiere betrachtet, deren Überlebensdauer um 100 % länger war als die durchschnittliche Übedebensdauer der Kontrolle. Aus dem prozentualen Anteil der geschützten Tiere wurden mittels Probit-Analyse die ED50-Werte berechnet.

Series [3] is described as follows: Vasodilating effect, tests without described method. As to conditions: in vivo.
Series [4] relates to isolierten Meerschweinchenileum. As to the kind of experiment: Spasmolytic activity: inhibition of barium chloride-induced contraction of isolated guinea pig ileum. As to conditions: Cavia porcellus. Details: species or system Meerschweinchen. From the text:
Die spasmolytische Aktivität der Verbindungen wurde am isolierten Meerschweinchendarm auf klassische Weise bestimmt (Magnus, R., Pflügers Arch., 102; 123/1904/). Als Referenzsubstanz wurden das bekannte Spasmolytikum Papaverin, ferner (+)-Apovincaminsäureäthylester verwendet. Die Ergebnisse sind in der Tabelle II zusammengefaßt.

Series [5] deals with Kreislauf narkotisierter Hunde. As to the kind of experiment: Vasodilating effect: blood flow in anaesthetised dogs (electromagnetic flow meter). Format: in vivo. As to conditions: Canis lupus familiaris, 1 mg/kg intravenous, six dogs. The method, then:
Die gefäßerweiternde Wirkung wurde an mit "Chloralose-Pentobarbital"-Gemisch narkotisierten Hunden untersucht. Die Durchblutung der Extremitäten wurde an der Arteria femoralis gemessen, über die Durchblutung des Gehirns ergaben Messungen an der Arteria carotis interna Aufschluß. Zu den Messungen wurden elektromagnetische Strömungsmesser verwendet. Die zu untersuchenden Substanzen wurden in einer Dosis von 1 mg/kg Körpergewicht sechs Hunden appliziert, und die in den gemessenen Parametern eintretenden Veränderungen wurden in Prozent umgerechnet. Als Referenzsubstanz diente der in der Medizin als gefäßerweiternde Substanz allgemein angewendete (+)-Apovincamlnsäureäthylester. Die Ergebnisse sind In der Tabelle I zusammengefaßt.

For series [6], the system named is Mäusen. Nature of the series: Anticonvulsive effect: maximal electroshock in mice. In kind it is in vivo. As to conditions: Mus musculus, po; 20 mA, 0,2 s, corneal electrode; read-out: ED50 max. Elektroschock.
Excerpt: Der Schock wurde an 22 - 24 g schweren Tieren durch eine corneale Elektrode ausgelöst (20 mA, 0,2 s, HSE-Schockgerät Typ 207). Als geschützt wurden diejenigen Tiere betrachtet, bei denen durch die Behandlung die tonische Extension der hinteren Gliedmaßen ausblieb.
In series [7] the test system is Mäusen. As to the kind of experiment: Anticonvulsive effect: metrazole (pentylenetetrazole) convulsion in mice. Format: in vivo. As to conditions: Mus musculus, po; 125 mg/kg pentylenetetrazole subcutaneous; read-out: ED50 Metrazolkrampf.
Excerpt: Die Tiere erhielten nach der Vorbehandlung subkutan 125 mglkg Pentylentetrazol. Registriert wurde das Ausbleiben des persistierenden clonischen Krampfes und des tonischen Extensorkrampfes.
Series [8] can be described thus: in vivo. The arrangement: species or system Mäuse. As to conditions: mouse, po. An excerpt: Muskelrelaxierende Wirkung (Traction).
Series [9] can be described thus: in vivo. As to conditions: for TD50: po. The method, then: Messung der Muskelinkoordination (Rotarod) (H. Kwibara et al.: Japan J. Pharmacol. 27, 117 /1977/). Nach vorherigem Training wurden Tiere ausgewählt die im Stande sind, 120 Sekunden lang auf dem horizontalen Stab (Durchmesser 20 mm, Drehzahl 12 min^-1) oben zu bleiben. Als Muskelinkoordination wurde gewertet, wenn die Tiere innerhalb der Limitzeit herabfielen.

Series [10] concerns nicht narkotisierter Mäuse. As to the kind of experiment: Antihypoxic effect: normobaric hypoxia in non-anaesthetised mice. Format: in vivo. The note with it: for Überlebensdauer (min): 50 mg/kg intraperitoneal 30 min before test, 96 % nitrogen, 4 % oxygen, mean ± spread; for Überlebensdauer (%) Verlängerung: prolongation versus control. From the text: Die antihypoxische Wirkung wurde an nicht narkotisierten Mäusen in normobarer Hypoxie bestimmt. Fünf männliche Mäuse wurden in einen Glaszylinder von 3 Liter Volumen gesetzt, und in den Zylinder wurde ein aus 96 % Stickstoff und 4 % Sauerstoff bestehendes Gasgemisch eingeleitet. Gemessen wurde die Zeit zwischen dem Einbringen der Tiere in den Zylinder und ihrem Verenden. Diejenigen Tiere, die die unbehandelte Kontrolle um mehr als die doppelte Zeitspanne überlebten, können als erfolgreich behandelt gelten. Die zu untersuchenden Substanzen wurden je 10 Tieren in einer Dosis von 50 mg/kg Intraperitoneal 30 Minuten vor Versuchsbeginn verabreicht.

Series [11] in a line: Antihypoxic effect, investigations without described method. As to conditions: in vivo.
Where [12] appears, read: inhibition of barium chloride-induced contraction, read-out: ED50 (the source's name).
Setting [13] is: blood flow of Arteria femoralis (extremities), read-out: A. femoralis (Veränderungen in Prozent).
The mark [14] stands for this setting: blood flow of Arteria carotis interna (brain), read-out: A. carotis (Veränderungen in Prozent).

Regarding `CC[C@@]12C=C(C(=O)OC)n3c4c(c5ccc(NC(=O)c6ccc([N+](=O)[O-])cc6)cc53)CCN(CCC1)[C@H]42` [Beispiel 9, 11-[4'-(Nitro)-benzoylamino]-apovincamin], the ED50 in [1] was found to be 40.9 mg/kg; in series [2] it was 42.1 mg/kg.
With `CCC12CCCN3CCc4c(n(c5cccc([N+](=O)[O-])c45)C(O)(C(=O)OC)C1)C32` (centres unmarked) [9-Nitro-vincamin], the “gefäßerweiternde Wirkung” value in [3] is listed as “keine gefäßerweiternde Wirkung”.
Take `CC[C@@]12C=C(C(=O)OC)n3c4c(c5ccc(NC(=O)c6ccccc6F)cc53)CCN(CCC1)[C@H]42` [Beispiel 26, 11-[2'-(Fluor)-benzoylamino]-apovincamin]: the IC50 in [4] (setting [12]) stood at 4 µg/mL (≈ 8.45 µM).
Take `CCOC(=O)C1=C[C@]2(CC)CCCN3CCc4c(n1c1cc(NC(=O)c5ccccc5)ccc41)[C@@H]32` [Beispiel 38, 11-(Benzoylamino)-apovincaminsäureäthylesterhydrochlorid]: in [5] (setting [13]), the change in vivo at 1 mg/kg stood at 0%. Moreover, the values for the median effective dose (ED50) in series [6] and in series [7] were 16.7 mg/kg and 9.7 mg/kg, respectively. Also, the TD50 in [8] and in series [9] was greater than 180 mg/kg in each case.
As for `CCOC(=O)C1=C[C@]2(CC)CCCN3CCc4c(n1c1cccc(NS(C)(=O)=O)c41)[C@@H]32` [Beispiel 7, 9-(Methylsulfonylamino)-apovincaminsäureäthylesterhydrochlorid], the change in vivo at 1 mg/kg in series [5] (setting [14]) was determined as 0%.
For the compound `CCOC(=O)C1=C[C@]2(CC)CCCN3CCc4c(n1c1cccc(N)c41)[C@@H]32` [Beispiel 6, 9-(Amino)-apovincaminsäureäthylesterhydrochlorid], the “Überlebensdauer (min)” value in [10] is given as 7,3 ± 2,31 min. Moreover, in series [10] (50 mg/kg intraperitoneal, animals surviving more than twice the control time), the “Schutz (%)” value came to 10%. In series [10] (50 mg/kg intraperitoneal), the “Überlebensdauer (%) Verlängerung” value came to 22%.
Regarding `CCC1(c2ccccc2)NC(=O)N(C)C1=O` (centres unmarked) [Mephenitoin, reference compound], the ED50 in series [1] was greater than 80 mg/kg; in series [2] it was greater than 80 mg/kg; in series [6], 26.3 mg/kg; in series [7], 24.5 mg/kg. Also, the TD50 in [8] was found to be 154 mg/kg; in series [9], 78.6 mg/kg. Further, the selectivity ratio in series [9] (mouse) was in the range of 3 to 6.
In the case of `CC[C@]12CCCN3CCc4c(n(c5ccccc45)[C@@](O)(C(=O)OC)C1)[C@@H]32` [Vincamin], the “Überlebensdauer (min)” value in series [10] is on record as 6,1 ± 1,30 min. In addition, in series [10] (50 mg/kg intraperitoneal), the “Überlebensdauer (%) Verlängerung” value worked out at 2%.
Take `CC[C@@]12C=C(C(=O)OC)n3c4c(c5ccc(NC(=O)c6ccccc6)cc53)CCN(CCC1)[C@H]42` [Beispiel 28, 11-(Benzoylamino)-apovincamin]: the IC50 in series [4] (setting [12]) amounted to 2.5 µg/mL (≈ 5.49 µM). Besides, the median effective dose (ED50) in series [1] is 25 mg/kg; in series [2], greater than 50 mg/kg; in series [6], 16 mg/kg; in series [7] it was 15.9 mg/kg.
For `CCOC(=O)C1=C[C@]2(CC)CCCN3CCc4c(n1c1cc(NC(=O)c5cccs5)ccc41)[C@@H]32` [Beispiel 37, 11-(Thien-2'-ylcarbonylamino)-apovincaminsäureäthylesterhydrochlorid], the change in vivo at 1 mg/kg in [5] (setting [13]) is 0%.
For `CCC12C=C(C(=O)OC)n3c4c(c5c([N+](=O)[O-])cccc53)CCN(CCC1)C42` (centres unmarked) [9-Nitro-apovincamin], the “antihypoxische Wirkung” value in [11] was “keine antihypoxische Wirkung”.
For `COc1ccc(Cc2nccc3cc(OC)c(OC)cc23)cc1OC` [Papaverin, reference compound], the IC50 in series [4] (read-out: ED50) stood at 5.4 µg/mL (≈ 15.9 µM).
Regarding `CC[C@@]12C=C(C(=O)OC)n3c4c(c5ccc(NC(C)=O)cc53)CCN(CCC1)[C@H]42` [Beispiel 21, 11-(Acetamido)-apovincamin], the change in vivo at 1 mg/kg in series [5] (setting [13]) is 0%.
On the same count and under the same terms, to `CC[C@@]12C=C(C(=O)OCC(C)C)n3c4c(c5ccc(NC(C)=O)cc53)CCN(CCC1)[C@H]42` [Beispiel 39, 11-(Acetamido)-apovincaminsäureisobutylesterhydrochlorid] belongs 0%.
As for `CCOC(=O)C1=C[C@]2(CC)CCCN3CCc4c(n1c1ccccc41)[C@@H]32` [Apovincaminsäureäthylester, reference compound], the IC50 in [4] (setting [12]) was found to be 2 µg/mL (≈ 5.71 µM). In addition, the “Überlebensdauer (min)” value in [10] is 6,4 ± 1,58 min. Also, in [10] (50 mg/kg intraperitoneal), the “Überlebensdauer (%) Verlängerung” value was determined as 7%. The ED50 in [1] and in series [2] was greater than 50 mg/kg each time.
On to `CCOC(=O)C1=C[C@]2(CC)CCCN3CCc4c(n1c1cccc(NC(C)=O)c41)[C@@H]32` [Beispiel 40, 9-(Acetamido)-apovincaminsäureäthylesterhydrochlorid], for which the change in vivo at 1 mg/kg in series [5] (setting [14]) amounted to 0%.

The ED50 is the midpoint of the dose-response relation.
